In the SangsterLogP compilation:

Experiment: method code SF-AS, from PMID: 8047542

Row | logP | Structure (SMILES)
1 | 2.3 | CC(C)Cc1ccc(C(C)C(=O)OC(C)C)cc1 (configuration not stated)
2 | 3.06 | CCC(C)OC(=O)C(C)c1ccc(CC(C)C)cc1 (configuration not stated)
3 | 2.68 | CC(C)COC(=O)C(C)c1ccc(CC(C)C)cc1 (configuration not stated)
4 | 3.13 | CCCCOC(=O)C(C)c1ccc(CC(C)C)cc1 (configuration not stated)
5 | 3.02 | CCOC(=O)C(C)c1ccc(CC(C)C)cc1 (configuration not stated)
6 | 3.55 | CCCCCCOC(=O)C(C)c1ccc(CC(C)C)cc1 (configuration not stated)
7 | 3.71 | CCCCCCCCCCCCCCCCOC(=O)C(C)c1ccc(CC(C)C)cc1 (configuration not stated)
8 | 3.3 | CCCCCOC(=O)C(C)c1ccc(CC(C)C)cc1 (configuration not stated)
9 | 2.37 | CC(C)Cc1ccc(C(C)C(=O)OC(C)(C)C)cc1 (configuration not stated)
10 | 2.88 | CCCOC(=O)C(C)c1ccc(CC(C)C)cc1 (configuration not stated)
11 | 3.75 | CCCCCCCOC(=O)C(C)c1ccc(CC(C)C)cc1 (configuration not stated)
12 | 2.97 | COC(=O)C(C)c1ccc(CC(C)C)cc1 (configuration not stated)
